From patent US20260209260A1, “VECTORIZED NHC IRIDIUM(III) COMPLEXES AND USE THEREOF IN PHOTODYNAMIC THERAPY AND/OR DIAGNOSTIC” (CENTRE NATIONAL DE LA RECHERCHE SCIENTIFIQUE, priority 2022, published 2026) come the findings set out here.

For orientation: Log P means the decadic logarithm of the partition coefficient of the neutral form, usually between octanol and water. Low values mean a more hydrophilic compound, high ones a more lipophilic compound. By GI50 is commonly meant the concentration giving 50% growth inhibition.

Like-named read-outs stand apart in the source and are kept apart here.

A short description of data set [1]: Lipophilicity: octanol-water partition coefficient, shake-flask method. The procedure, abridged:
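Octanol and water mutually pre-saturated for 24 h; compound ([…] stock in aqueous phase) partitioned against equal volume n-octanol, mixed 15 min, phases separated by centrifugation.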

Data set [2] can be described thus: UV/Vis absorption spectra. It counts as physicochemical. The following applies: room temperature; for maximum absorption, lowest-lying bands in the visible region over 360 nm: CH2Cl2 or CH2Cl2/MeOH (1:1); for λmax (nm) ε (M^−1 · cm^−1): air-saturated CH2Cl2 or CH2Cl2/MeOH (1:1), 50 μM, ε in brackets, sh = shoulder. On the procedure:
UV/Vis absorption spectra were recorded at RT on solutions contained in quartz cuvettes (optical pathlength 1 cm, Hellma®) with a PerkinElmer® UV/VIS/NIR spectrophotometer Lambda 950 and a PerkinElmer® detector UV/VIS/NIR Accessory 2D Detector Module.

Data set [3] is described as follows: Luminescence emission spectra and quantum yield. It counts as physicochemical. The settings on record: for ΦP emission phosphorescence quantum yield: room temperature, reference POPOP in hexane or rhodamine B in ethanol; for λem: CH2Cl2, room temperature, λexc 365 nm or 470 nm. In a few lines: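 Relative luminescence quantum yields (Demas–Crosby) were derived from integrated emission areas of sample versus reference standard, with solvent refractive-index correction, on RT solutions. Emission spectra, fluorescence and phosphorescence, were taken for the complexes in CH2Cl2 at room temperature.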

Data set [4] in a line: Emission lifetime measurement. It counts as physicochemical. The procedure, abridged:
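Time-correlated single-photon counting with 0.5 ns resolution, using D2-lamp or 405 nm pulsed-diode-laser excitation, gave the lifetimes; quoted uncertainty is 5%.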

Data set [5] relates to NIH-3T3 fibroblast cells (non-tumor). Description: Cell viability assay (MTT), dark and blue light. It counts as cell-based, Murine. The settings on record: for Photosensitizing index (PI) NIH-3T3: dark vs blue light 458 nm. In a few lines: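 Viability determined by MTT assay (A570) after 72 h treatment in 0.1% DMSO, with or without a 10 min irradiation at 8 h. Data from at least three independent experiments run in triplicate.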

Data set [6] has as its system C4-2B prostate cancer cells (PSMA-positive). Description: Cell viability assay (MTT), dark and blue light. The settings on record: for Photosensitizing index (PI) C4-2b: dark vs blue light 458 nm. It counts as cell-based, Human. On the procedure:
(§1) Cells were grown in humidified incubators at 37° C. in 5% CO2. Murine MC3T3 osteoblast and NIH-3T3 fibroblast cells-used as non-tumor cell models-were cultured in a-MEM medium and DMEM medium supplemented with 10% fetal bovine serum (FBS) and 1% Penicillin/Streptomycin (P/S) antibiotics, respectively. Human T24 bladder, MGHU3 bladder, Scaber bladder, A549 lung, MCF7 breast, MiaPaCa2 pancreas cancer cells were cultured in DMEM medium supplemented with 10% FBS and 1% P/S antibiotics. Human ASPC-1 pancreas, PC-3 prostate, DU-145 prostate, C4-2B prostate and 22rV1 prostate cancer cells were cultured in RPMI medium supplemented with 10% FBS and 1% P/S antibiotics. Human Hela cervix and HepG2 liver cancer cells were cultured EMEM medium supplemented with 10% FBS and 1% P/S antibiotics.
(§2) MTT reagent (3-(4,5-dimethylthiazol-2-yl)-2,5-diphenyltetrazolium bromide) was used to determine cell death as originally described by Mosmann. Briefly, cells were seeded from 5,000 to 10,000 cells/well in 24-well plates (1 mL) depending on the cell type and allowed to attach overnight. The complexes were prepared in DMSO. The concentration of the complexes was calculated based on the elemental composition of the complexes determined by the elemental analyses. All cell viability experiments were carried out with a fixed concentration of 0.1% (v/v) DMSO. After 72 h of treatment, cells were incubated at 37° C. and 5% CO2 with 25 μL of MTT solution (5 mg/ml; Sigma-Aldrich) in 24-well plates for 3 to 4 h. After solubilization with 500 μL of DMSO, formazan was quantified spectrophotometrically with a microplate reader at 570 nm absorbance (ClarioSTAR, BMG LabTech). […] All the results were calculated from data obtained in at least three independent experiments performed in triplicate.
(§3) Irradiation was conducted using an in-house device, a series of blue light LEDs selected according to the absorption spectra of the compounds at 458 nm wavelength with an emitted power of 9.6 Watts. The light fluence was measured at 458 nm with an optical power meter Thorlabs PM100A at different distances between the cell layer and the light source (5 and 10 cm).
(§4) Two sets of experiments were conducted in parallel for each complex to be studied:
(§5) 1. The cells were incubated with the different complexes (in the dark) for 72 h.
(§6) 2. The cells were incubated for 8 h with the different complexes (in the dark), then irradiated for 10 min, followed by an incubation in the dark up to 72 h.

In data set [7] the test system is PC-3 prostate cancer cells (PSMA-negative). Nature of the data set: Cell viability assay (MTT), dark and blue light. The class given is cell-based, Human. The settings on record: for SI (vs NIH-3T3) PC-3 Blue: blue light 458 nm; for Photosensitizing index (PI) PC-3: dark vs blue light 458 nm. The procedure:
as §1, §2, §3, §4, §5, §6

The mark [8] stands for this setting: n-octanol/water, shake-flask, mean of at least three determinations.
The mark [9] stands for this setting: 8 h in the dark, blue light 458 nm 10 min, then dark up to 72 h, read-out: GI50 NIH-3T3 Blue.
The mark [10] stands for this setting: NIH-3T3, blue light, read-out: GI50.
[11] abbreviates: in the dark, 72 h, read-out: GI50 NIH-3T3 Dark.
Where [12] appears, read: 8 h in the dark, blue light 458 nm 10 min, then dark up to 72 h, read-out: GI50 PC-3 Blue.
Where [13] appears, read: PC3, blue light, read-out: GI50.
The mark [14] stands for this setting: in the dark, 72 h, read-out: GI50 PC-3 Dark.

Take `Cc1ccc2[c](c1)[Ir-3]13([c]4cc(C)ccc4-c4cccc[n+]41)([c]1n(CCC(=O)NCCCC[C@H](NC(=O)N[C@@H](CCC(=O)O)C(=O)O)C(=O)O)cc[n+]1-c1cccc[n+]13)[n+]1ccccc1-2.F[P-](F)(F)(F)(F)F` [III-b]: the “Log P” value in data set [1] (setting [8]) is −0.14 ± 0.04. The “maximum absorption, lowest-lying bands in the visible region over 360 nm” value in data set [2] is given as “around 380 nm”. In addition, the “λmax (nm) ε (M^−1 · cm^−1)” value in data set [2] is 310 (sh) (23310), 379 (7615) nm (M^−1 · cm^−1). The “ΦP emission phosphorescence quantum yield” value in data set [3] came to 1.8%. In addition, in data set [4], the τ1 emission lifetime came to 194 ns. Also, the GI50 was more than 100 µM in data set [5] (setting [9]); more than 100 µM in data set [5] (setting [10]); more than 100 µM in data set [5] (NIH-3T3, dark, read-out: GI50); more than 100 µM in data set [5] (setting [11]); more than 100 µM in data set [7] (setting [12]); more than 100 µM in data set [7] (setting [13]). In addition, the GI50 was more than 100 µM in data set [7] (PC3, dark, read-out: GI50) and more than 100 µM in data set [7] (setting [14]). The “Photosensitizing index (PI) NIH-3T3” value in data set [5] is “did not show any photosensitizing effect”. Besides, the “Photosensitizing index (PI) C4-2b” value in data set [6] is “did not show any photosensitizing effect”. For the same compound, the “SI (vs NIH-3T3) PC-3 Blue” value in data set [7] came to 1.0. Moreover, the “Photosensitizing index (PI) PC-3” value in data set [7] is “did not show any photosensitizing effect”.
Take `F[P-](F)(F)(F)(F)F.O=C(O)CC[C@H](NC(=O)N[C@@H](CCCCNC(=O)CCn1cc[n+]2[c]1[Ir-3]13([c]4ccccc4-c4ccc5ccccc5[n+]41)([c]1ccccc1-c1ccc4ccccc4[n+]13)[n+]1ccccc1-2)C(=O)O)C(=O)O` [III-g]: the “Log P” value in data set [1] stood at 0.33 ± 0.01. The “λmax (nm) ε (M^−1 · cm^−1)” value in data set [2] is reported as 334 (18100), 436 (4280) nm (M^−1 · cm^−1). In addition, the λem in data set [3] was found to be 593 nm. The “ΦP emission phosphorescence quantum yield” value in data set [3] is listed as 0.1%. For the same compound, the τ1 emission lifetime in data set [4] worked out at 191 ns. In addition, the GI50 in data set [5] (setting [9]) is more than 100 µM; in data set [5] (setting [10]), more than 100 µM; in data set [5] (NIH-3T3, dark, read-out: GI50), more than 100 µM; in data set [5] (setting [11]) it was more than 100 µM; in data set [6] (8 h in the dark, blue light 458 nm 10 min, then dark up to 72 h, read-out: GI50 C4-2b Blue), 17.6 µM; in data set [6] (C4-2b, blue light, read-out: GI50), 17.6 µM. Besides, the GI50 in data set [6] (C4-2b, dark, read-out: GI50) was 21.3 µM; in data set [6] (in the dark, 72 h, read-out: GI50 C4-2b Dark), 21.3 µM; in data set [7] (setting [12]), 48.7 µM; in data set [7] (setting [13]), 48.7 µM; in data set [7] (PC3, dark, read-out: GI50), more than 100 µM; in data set [7] (setting [14]), not below 100 µM. Also, the “Photosensitizing index (PI)” value in data set [6] (C4-2b, dark vs blue light) is 1.2; in data set [7] (PC3, dark vs blue light) it was more than 2.1. In addition, the “SI (vs NIH-3T3) C4-2b Blue” value in data set [6] (blue light 458 nm) was more than 5.7. Further, the “SI (vs NIH-3T3) PC-3 Blue” value in data set [7] is recorded as more than 2.1.
For the compound `COC(=O)c1cccc2[c]1[Ir-3]13([c]4c(C(=O)OC)cccc4-c4cccc[n+]41)([c]1n(CCC(=O)NCCCC[C@H](NC(=O)N[C@@H](CCC(=O)O)C(=O)O)C(=O)O)cc[n+]1-c1cccc[n+]13)[n+]1ccccc1-2.F[P-](F)(F)(F)(F)F` [III-d], in data set [1] (setting [8]), the lipophilicity (Log P) is −0.52 ± 0.01. In data set [2], the “maximum absorption, lowest-lying bands in the visible region over 360 nm” value is “around 370 nm”. Moreover, in data set [2], the “λmax (nm) ε (M^−1 · cm^−1)” value was 370 (13650), 452 (sh) (565) nm (M^−1 · cm^−1). Also, the λem in data set [3] is listed as 498 nm. Moreover, the “ΦP emission phosphorescence quantum yield” value in data set [3] is on record as 2.1%. The compound further showed a τ1 emission lifetime in data set [4] of 219 ns. The GI50 in data set [5] (setting [9]) is more than 100 µM; in data set [5] (setting [10]), more than 100 µM; in data set [5] (NIH-3T3, dark, read-out: GI50), more than 100 µM; in data set [5] (setting [11]), more than 100 µM; in data set [7] (setting [12]) it was more than 100 µM; in data set [7] (setting [13]), more than 100 µM. Moreover, the concentration for 50% growth inhibition (GI50) was more than 100 µM in data set [7] (PC3, dark, read-out: GI50) and more than 100 µM in data set [7] (setting [14]). In addition, the “Photosensitizing index (PI) NIH-3T3” value in data set [5] was “did not show any photosensitizing effect”. Further, the “Photosensitizing index (PI) C4-2b” value in data set [6] is recorded as “did not show any photosensitizing effect”. In addition, in data set [7], the “SI (vs NIH-3T3) PC-3 Blue” value turned out to be 1.0. For the same compound, in data set [7], the “Photosensitizing index (PI) PC-3” value is “did not show any photosensitizing effect”.
